{"source": "patent US6881741B2", "about": "(ViroChem Pharma Inc., priority 2001, dated 2005)", "data": [{"target": "recombinant HCV NS5B (HCV RNA-dependent RNA polymerase) (Hepatitis C virus genotype 1b, UniProt P26663)", "sequence (P26663 2420-3010 limits assumed)": "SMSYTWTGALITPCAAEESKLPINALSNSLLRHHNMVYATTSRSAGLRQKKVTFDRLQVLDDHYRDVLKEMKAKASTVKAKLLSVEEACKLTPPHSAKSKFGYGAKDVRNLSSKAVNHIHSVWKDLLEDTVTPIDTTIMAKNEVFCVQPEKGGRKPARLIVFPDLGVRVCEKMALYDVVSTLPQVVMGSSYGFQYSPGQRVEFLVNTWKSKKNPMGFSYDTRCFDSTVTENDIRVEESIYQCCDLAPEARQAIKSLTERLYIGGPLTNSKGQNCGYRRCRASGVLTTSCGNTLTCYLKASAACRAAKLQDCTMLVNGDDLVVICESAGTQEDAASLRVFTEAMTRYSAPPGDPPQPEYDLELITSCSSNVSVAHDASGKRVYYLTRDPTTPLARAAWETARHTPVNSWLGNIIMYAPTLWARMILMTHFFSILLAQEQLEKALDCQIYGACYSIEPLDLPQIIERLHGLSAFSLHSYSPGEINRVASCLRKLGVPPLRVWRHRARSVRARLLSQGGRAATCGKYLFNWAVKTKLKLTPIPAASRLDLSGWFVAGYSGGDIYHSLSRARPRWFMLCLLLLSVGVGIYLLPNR", "test": "biochemical", "conditions": "related polymerase activity (Example 27 list); read-out: IC50", "units": {"IC50": "µM"}, "values": [{"smiles": "Cc1ccc(C)c(S(=O)(=O)Nc2cc(-c3ccc(F)cc3)sc2C(=O)O)c1", "note": "[Compound 107, 3-(2,5-DIMETHYL-BENZENESULFONYLAMINO)-5-(4-FLUORO-PHENYL)-THIOPHENE-2-CARBOXYLIC ACID]", "IC50": "< 5"}, {"smiles": "Cc1ccccc1S(=O)(=O)Nc1cc(/C=C/c2ccccc2)sc1C(=O)O", "note": "[Compound 108, 5-STYRYL-3-(TOLUENE-2-SULFONYLAMINO)-THIOPHENE-2-CARBOXYLIC ACID]", "IC50": "< 5"}, {"smiles": "O=C(O)c1sc(-c2ccc([N+](=O)[O-])cc2)cc1NS(=O)(=O)c1ccc(F)cc1F", "note": "[Compound 109, 3-(2,4-DIFLUORO-BENZENESULFONYLAMINO)-5-(4-NITRO-PHENYL)-THIOPHENE-2-CARBOXYLIC ACID]", "IC50": "< 5"}, {"smiles": "O=C(O)c1sc(-c2ccc(F)cc2)cc1NS(=O)(=O)c1ccc(F)cc1F", "note": "[Compound 110, 3-(2,4-DIFLUORO-BENZENESULFONYLAMINO)-5-(4-FLUORO-PHENYL)-THIOPHENE-2-CARBOXYLIC ACID]", "IC50": "< 5"}, {"smiles": "O=C(O)c1sc(-c2ccccc2)cc1N(Cc1ccc(-c2ccc(F)c(Cl)c2)s1)C(=O)c1ccc(Cl)cc1Cl", "note": "[Compound 111, 3-[[5-(3-CHLORO-4-FLUORO-PHENYL)-THIOPHEN-2-YLMETHYL]-(2,4-DICHLORO-BENZOYL)-AMINO]-5-PHENYL-THIOPHENE-2-CARBOXYLIC ACID]", "IC50": "< 5"}, {"smiles": "O=C(O)c1sc(-c2ccccc2)cc1NC(=O)N1CCC2(CC1)C(=O)NCN2c1ccccc1", "note": "[Compound 112, 3-[(4-OXO-1-PHENYL-1,3,8-TRIAZA-SPIRO[4,5]DECANE-8-CARBONYL)-AMINO]-5-PHENYL-THIOPHENE-2-CARBOXYLIC ACID]", "IC50": "< 5"}, {"smiles": "O=C(O)c1sc(-c2ccccc2)cc1NC(=O)N1CCC(n2c(=O)[nH]c3ccccc32)CC1", "note": "[Compound 113, 3-{[4-(2-OXO-2,3-DIHYDRO-BENZOIMIDAZOL-1-YL)-PIPERIDINE-1-CARBONYL]-AMINO]-5-PHENYL-THIOPHENE-2-CARBOXYLIC ACID]", "IC50": "> 20"}, {"smiles": "O=C(O)c1sc(-c2ccccc2)cc1NC(=O)N1CCN(c2ccc([N+](=O)[O-])cc2)CC1", "note": "[Compound 114, 3-{[4-(4-NITRO-PHENYL)-PIPERAZINE-1-CARBONYL]-AMINO}-5-PHENYL-THIOPHENE-2-CARBOXYLIC ACID]", "IC50": "< 5"}, {"smiles": "Cc1ccccc1S(=O)(=O)Nc1cc(-c2ccccc2C(=O)O)sc1C(=O)O", "note": "[Compound 115, 5-(2-CARBOXY-PHENYL)-3-(TOLUENE-2-SULFONYLAMINO)-THIOPHENE-2-CARBOXYLIC ACID]", "IC50": "5 to 20"}, {"smiles": "O=C(O)c1sc(-c2ccc(Cl)cc2)cc1NS(=O)(=O)c1ccccn1", "note": "[Compound 116, 5-(4-CHLORO-PHENYL)-3-(PYRIDINE-2-SULFONYLAMINO)-THIOPHENE-2-CARBOXYLIC ACID]", "IC50": "5 to 20"}, {"smiles": "Cc1ccccc1S(=O)(=O)Nc1cc(-c2cccc(C#N)c2)sc1C(=O)O", "note": "[Compound 117, 5-(3-CYANO-PHENYL)-3-(TOLUENE-2-SULFONYLAMINO)-THIOPHENE-2-CARBOXYLIC ACID]", "IC50": "< 5"}, {"smiles": "Cc1ccc(-c2cc(NS(=O)(=O)c3cc(C)ccc3C)c(C(=O)O)s2)cc1", "note": "[Compound 118, 3-(2,5-DIMETHYL-BENZENESULFONYLAMINO)-5-P-TOLYL-THIOPHENE-2-CARBOXYLIC ACID]", "IC50": "< 5"}, {"smiles": "Cc1ccc(-c2cc(NS(=O)(=O)c3ccc(F)cc3F)c(C(=O)O)s2)cc1", "note": "[Compound 119, 3-(2,4-DIFLUORO-BENZENESULFONYLAMINO)-5-P-TOLYL-THIOPHENE-2-CARBOXYLIC ACID]", "IC50": "< 5"}, {"smiles": "Cc1ccccc1S(=O)(=O)Nc1cc(CCc2ccccc2)sc1C(=O)O", "note": "[Compound 120, 5-PHENETHYL-3-(TOLUENE-2-SULFONYLAMINO)-THIOPHENE-2-CARBOXYLIC ACID]", "IC50": "5 to 20"}, {"smiles": "CCOC(=O)c1cccc(-c2cc(NS(=O)(=O)c3ccccc3C)c(C(=O)O)s2)c1", "note": "[Compound 121, 5-(3-ETHOXYCARBONYL-PHENYL)-3-(TOLUENE-2-SULFONYLAMINO)-THIOPHENE-2-CARBOXYLIC ACID]", "IC50": "5 to 20"}, {"smiles": "COc1ccc(-c2cc(NS(=O)(=O)c3ccccc3C)c(C(=O)O)s2)cc1", "note": "[Compound 122, 5-(4-METHOXY-PHENYL)-3-(TOLUENE-2-SULFONYLAMINO)-THIOPHENE-2-CARBOXYLIC ACID]", "IC50": "< 5"}, {"smiles": "COc1cccc(-c2cc(NS(=O)(=O)c3ccccc3C)c(C(=O)O)s2)c1", "note": "[Compound 123, 5-(3-METHOXY-PHENYL)-3-(TOLUENE-2-SULFONYLAMINO)-THIOPHENE-2-CARBOXYLIC ACID]", "IC50": "< 5"}, {"smiles": "Cc1ccccc1S(=O)(=O)Nc1cc(-c2ccc(-c3ccc(Br)cc3)cc2)sc1C(=O)O", "note": "[Compound 124, 5-(4′-BROMO-BIPHENYL-4-YL)-3-(TOLUENE-2-SULFONYLAMINO)-THIOPHENE-2-CARBOXYLIC ACID]", "IC50": "< 5"}, {"smiles": "Cc1ccccc1S(=O)(=O)Nc1cc(-c2ccc(CO)cc2)sc1C(=O)O", "note": "[Compound 125, 5-(4-HYDROXYMETHYL-PHENYL)-3-(TOLUENE-2-SULFONYLAMINO)-THIOPHENE-2-CARBOXYLIC ACID]", "IC50": "< 5"}, {"smiles": "Cc1ccccc1S(=O)(=O)Nc1cc(-c2ccoc2)sc1C(=O)O", "note": "[Compound 126, 5-FURAN-3-YL-3-(TOLUENE-2-SULFONYLAMINO)-THIOPHENE-2-CARBOXYLIC ACID]", "IC50": "< 5"}, {"smiles": "Cc1ccccc1S(=O)(=O)Nc1cc(-c2cc3ccccc3o2)sc1C(=O)O", "note": "[Compound 127, 5-BENZOFURAN-2-YL-3-(TOLUENE-2-SULFONYLAMINO)-THIOPHENE-2-CARBOXYLIC ACID]", "IC50": "< 5"}, {"smiles": "Cc1ccccc1S(=O)(=O)Nc1cc(-c2ccccn2)sc1C(=O)O", "note": "[Compound 128, 5-PYRIDIN-2-YL-3-(TOLUENE-2-SULFONYLAMINO)-THIOPHENE-2-CARBOXYLIC ACID]", "IC50": "< 5"}, {"smiles": "O=C(O)c1sc(-c2ccc([N+](=O)[O-])cc2)cc1NS(=O)(=O)c1ccccn1", "note": "[Compound 129, 5-(4-NITRO-PHENYL)-3-(PYRIDINE-2-SULFONYLAMINO)-THIOPHENE-2-CARBOXYLIC ACID]", "IC50": "5 to 20"}, {"smiles": "CN(C(=O)c1cc2ccccc2o1)c1cc(-c2ccccc2)sc1C(=O)O", "note": "[Compound 130, 3-[(BENZOFURAN-2-CARBONYL)-METHYL-AMINO]-5-PHENYL-THIOPHENE-2-CARBOXYLIC ACID]", "IC50": "> 20"}, {"smiles": "Cc1ccc(C(=O)N(C)c2cc(-c3ccccc3)sc2C(=O)O)c(C)c1", "note": "[Compound 131, 3-[(2,4-DIMETHYL-BENZOYL)-METHYL-AMINO]-5-PHENYL-THIOPHENE-2 CARBOXYLIC ACID]", "IC50": "< 5"}, {"smiles": "N#Cc1ccccc1-c1ccc(CN(C(=O)c2ccc(Cl)cc2Cl)c2cc(-c3ccccc3)sc2C(=O)O)s1", "note": "[Compound 132, 3-[[(5-(2-CYANO-PHENYL)-THIOPHEN-2-YLMETHYL]-(2,4-DICHLORO-BENZOYL)-AMINO]-5-PHENYL-THIOPHENE-2-CARBOXYLIC ACID]", "IC50": "< 5"}, {"smiles": "O=C(O)c1sc(-c2ccc(F)cc2)cc1NS(=O)(=O)c1ccccn1", "note": "[Compound 133, 5-(4-FLUORO-PHENYL)-3-(PYRIDINE-2-SULFONYLAMINO)-THIOPHENE-2-CARBOXYLIC ACID]", "IC50": "< 5"}, {"smiles": "Cc1ccccc1S(=O)(=O)Nc1cc(/C=C/c2ccc(Cl)cc2)sc1C(=O)O", "note": "[Compound 134, 5-[2-(4-CHLORO-PHENYL)-VINYL]-3-(TOLUENE-2-SULFONYLAMINO)-THIOPHENE-2-CARBOXYLIC ACID]", "IC50": "5 to 20"}, {"smiles": "O=C(O)c1sc(-c2ccc(F)cc2)cc1NS(=O)(=O)c1ccccc1", "note": "[Compound 135, 3-BENZENESULFONYLAMINO-5-(4-FLUORO-PHENYL)-THIOPHENE-2-CARBOXYLIC ACID]", "IC50": "< 5"}, {"smiles": "Cc1ccc(S(=O)(=O)Nc2cc(-c3ccccc3)sc2C(=O)O)c(C)c1", "note": "[Compound 136, 3-(2,4-DIMETHYL-BENZENESULFONYLAMINO)-5-PHENYL-THIOPHENE-2-CARBOXYLIC ACID]", "IC50": "< 5"}, {"smiles": "C=Cc1ccccc1S(=O)(=O)Nc1cc(-c2ccccc2)sc1C(=O)O", "note": "[Compound 137, 5-PHENYL-3-(2-VINYL-BENZENESULFONYLAMINO)-THIOPHENE-2-CARBOXYLIC ACID]", "IC50": "5 to 20"}, {"smiles": "O=C(O)c1sc(-c2ccccc2)cc1NS(=O)(=O)c1cc(F)c(Br)cc1F", "note": "[Compound 138, 3-(4-BROMO-2,5-DIFLUORO-BENZENESULFONYLAMINO)-5-PHENYL-THIOPHENE-2-CARBOXYLIC ACID]", "IC50": "< 5"}, {"smiles": "CC(=O)Nc1nc(C)c(S(=O)(=O)Nc2cc(-c3ccccc3)sc2C(=O)O)s1", "note": "[Compound 139, 3-(2-ACETYLAMINO-4-METHYL-THIAZOLE-5-SULFONYLAMINO)-5-PHENYL-THIOPHENE-2-CARBOXYLIC ACID]", "IC50": "5 to 20"}, {"smiles": "CC(=O)c1ccc(S(=O)(=O)Nc2cc(-c3ccccc3)sc2C(=O)O)cc1", "note": "[Compound 140, 3-(4-ACETYL-BENZENESULFONYLAMINO)-5-PHENYL-THIOPHENE-2-CARBOXYLIC ACID]", "IC50": "5 to 20"}, {"smiles": "O=C(O)c1sc(-c2ccccc2)cc1NS(=O)(=O)c1ccc(F)cc1C(F)(F)F", "note": "[Compound 141, 3-(4-FLUORO-2-TRIFLUOROMETHYL-BENZENESULFONYLAMINO)-5-PHENYL-THIOPHENE-2-CARBOXYLIC ACID]", "IC50": "5 to 20"}, {"smiles": "COc1cc(C)ccc1S(=O)(=O)Nc1cc(-c2ccccc2)sc1C(=O)O", "note": "[Compound 142, 3-(2-METHOXY-4-METHYL-BENZENESULFONYLAMINO)-5-PHENYL-THIOPHENE-2-CARBOXYLIC ACID]", "IC50": "5 to 20"}, {"smiles": "O=C(O)c1sc(-c2ccccc2)cc1NS(=O)(=O)c1ccc(F)c(F)c1", "note": "[Compound 143, 3-(3,4-DIFLUORO-BENZENESULFONYLAMINO)-5-PHENYL-THIOPHENE-2-CARBOXYLIC ACID]", "IC50": "< 5"}, {"smiles": "CCOC(=O)c1c(C)oc(-c2ccc(Cl)cc2)c1S(=O)(=O)Nc1cc(-c2ccccc2)sc1C(=O)O", "note": "[Compound 144, 4-(2-CARBOXY-5-PHENYL-THIOPHEN-3-YLSULFAMOYL)-5-(4-CHLORO-PHENYL)-2-METHYL-FURAN-3-CARBOXYLIC ACID ETHYL ESTER]", "IC50": "5 to 20"}, {"smiles": "O=C(O)c1sc(-c2ccccc2)cc1NS(=O)(=O)c1ccc(F)c(C(F)(F)F)c1", "note": "[Compound 145, 3-(4-FLUORO-3-TRIFLUOROMETHYL-BENZENESULFONYLAMINO)-5-PHENYL-THIOPHENE-2-CARBOXYLIC ACID]", "IC50": "5 to 20"}, {"smiles": "Nc1ccccc1S(=O)(=O)Nc1cc(-c2ccccc2)sc1C(=O)O", "note": "[Compound 146, 3-(2-AMINO-BENZENESULFONYLAMINO)-5-PHENYL-THIOPHENE-2-CARBOXYLIC ACID]", "IC50": "< 5"}, {"smiles": "O=C(O)c1sc(-c2ccccc2)cc1NS(=O)(=O)c1cccc([N+](=O)[O-])c1", "note": "[Compound 147, 3-(3-NITRO-BENZENESULFONYLAMINO)-5-PHENYL-THIOPHENE-2-CARBOXYLIC ACID]", "IC50": "< 5"}]}]}
